pIC50: −log10 of the molar value.
How the values were obtained:
Pf Dd2-B2 ABS parasites = assay: 72-h asexual blood stage (ABS) growth inhibition assay, Dd2-B2; type: cell-based, Plasmodium falciparum; conditions: Dd2-B2 wild-type, 72 h; read-out: Mean IC50, 72 h ABS activity
Method: (§1) Synchronicity was achieved using three rounds of sorbitol treatment on early rings, spaced 48 h apart, followed by magnetic purification of segmented schizonts following the final sorbitol treatment. Parasites were highly synchronous to within a 3 h window of development. Assays were repeated on at least three independent occasions (each with technical duplicates) and statistical significance was assessed using Mann Whitney U tests.

sel. Dd2-B2 TKL3T1268R = assay: 72-h ABS assay, MMV030084-selected line; type: cell-based, Plasmodium falciparum
Method: as §1
The resulting MMV030084-resistant parasites were cloned by limiting dilution ([Baker et al., 2017]) to obtain genetically homogenous cultures for further phenotyping and whole-genome sequencing. A second round of […]. […] Drug susceptibility of resistant lines was assessed using a 72 h ABS assay as described above, and a Mann Whitney U test was applied to assess statistically significant differences.

**Q.** Which results are given for `CC(C)(C)CNCC(C)(C)c1nc(-c2ccc(Cl)c(O)c2)c(-c2ccncc2)[nH]1` [TCMDC-140549]?
**A.** pIC50 (Pf Dd2-B2 ABS parasites): 6.68; pIC50 (sel. Dd2-B2 TKL3T1268R): 6.54

— article PMC7369637, “Inhibition of Resistance-Refractory P. falciparum Kinase PKG Delivers Prophylactic, Blood Stage, and Transmission-Blocking Antiplasmodial Activity” (Cell Chemical Biology, 2020)
